From US10975084B2, “KDM5 inhibitors” (Merck Sharp & Dohme Corp., priority 2016, dated 2021)

molecular target: KDM5B (Homo sapiens (Human), UniProt Q9UGL1); assay: KDM5B TR-FRET Enzyme Activity Assay; format: biochemical; conditions: LANCE TR-FRET; 5 nM full-length recombinant KDM5B; ten point titration 100000 nM to 5.08 nM
Method in brief: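 Full-length KDM5B from Sf21 cells (5 nM) was preincubated 30 min with compound in HEPES pH 7.3 buffer with ascorbate and 2 μM Fe(II). Reaction with 500 nM biotinylated H3K4Me3 peptide and 500 nM α-ketoglutarate ran 60 min. Product was detected by TR-FRET (Eu-anti-H3K4Me1-2/streptavidin-Dylight 650, 665/615 ratio); IC50 came from a 4-parameter fit.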

Chain of KDM5B (Q9UGL1 whole entry): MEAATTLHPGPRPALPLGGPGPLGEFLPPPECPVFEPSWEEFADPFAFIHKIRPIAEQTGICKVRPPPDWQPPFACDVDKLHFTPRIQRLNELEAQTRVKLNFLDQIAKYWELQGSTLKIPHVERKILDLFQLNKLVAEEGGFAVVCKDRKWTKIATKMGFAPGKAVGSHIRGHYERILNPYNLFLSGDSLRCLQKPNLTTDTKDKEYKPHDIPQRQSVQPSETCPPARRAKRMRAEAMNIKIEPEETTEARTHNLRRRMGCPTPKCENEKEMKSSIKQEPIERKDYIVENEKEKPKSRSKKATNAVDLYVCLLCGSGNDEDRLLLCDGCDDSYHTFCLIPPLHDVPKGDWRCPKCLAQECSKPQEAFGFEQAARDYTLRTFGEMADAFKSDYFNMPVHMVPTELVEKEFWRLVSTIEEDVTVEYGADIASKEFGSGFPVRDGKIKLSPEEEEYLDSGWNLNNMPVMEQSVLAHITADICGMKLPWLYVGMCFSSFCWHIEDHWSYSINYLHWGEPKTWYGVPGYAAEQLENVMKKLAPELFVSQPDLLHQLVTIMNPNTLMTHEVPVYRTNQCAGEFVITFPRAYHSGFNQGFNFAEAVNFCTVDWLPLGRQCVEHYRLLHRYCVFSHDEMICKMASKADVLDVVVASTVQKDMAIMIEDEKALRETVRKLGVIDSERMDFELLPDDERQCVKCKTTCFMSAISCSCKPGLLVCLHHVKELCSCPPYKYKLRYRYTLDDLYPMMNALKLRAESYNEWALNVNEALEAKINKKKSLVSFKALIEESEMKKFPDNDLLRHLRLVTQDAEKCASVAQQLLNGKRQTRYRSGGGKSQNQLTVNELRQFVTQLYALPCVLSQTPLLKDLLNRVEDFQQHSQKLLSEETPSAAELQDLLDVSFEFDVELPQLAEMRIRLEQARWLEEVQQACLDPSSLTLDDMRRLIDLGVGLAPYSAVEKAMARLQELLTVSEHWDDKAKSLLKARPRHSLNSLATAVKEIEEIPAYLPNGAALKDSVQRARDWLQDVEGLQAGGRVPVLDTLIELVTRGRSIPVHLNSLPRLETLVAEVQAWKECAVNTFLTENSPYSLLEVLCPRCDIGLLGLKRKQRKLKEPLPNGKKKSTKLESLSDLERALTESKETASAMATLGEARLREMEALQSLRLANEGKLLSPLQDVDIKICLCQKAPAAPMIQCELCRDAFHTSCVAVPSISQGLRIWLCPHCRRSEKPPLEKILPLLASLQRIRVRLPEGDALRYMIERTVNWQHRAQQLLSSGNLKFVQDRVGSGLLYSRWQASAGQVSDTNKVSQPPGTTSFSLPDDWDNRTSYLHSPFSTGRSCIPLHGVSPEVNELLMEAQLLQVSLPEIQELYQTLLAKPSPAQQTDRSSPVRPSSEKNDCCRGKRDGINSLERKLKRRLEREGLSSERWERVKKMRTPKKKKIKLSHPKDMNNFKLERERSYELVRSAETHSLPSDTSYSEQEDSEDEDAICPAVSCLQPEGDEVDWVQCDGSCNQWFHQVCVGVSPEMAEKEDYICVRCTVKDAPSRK

Row | Structure (SMILES) | IC50 [nM]
1 | CC(C)c1c(-c2cccc(-n3cccn3)c2)[nH]c2ncnn2c1=O [Example 11-83, 6-(1-methylethyl)-5-[3-(1H-pyrazol-1-yl)phenyl][1,2,4]triazolo[1,5-a]pyrimidin-7(4H)-one] | 21.2
2 | CC(C)c1c(-c2ccc(C(F)(F)F)cc2)[nH]c2ncnn2c1=O [Example 11-84, 6-(1-methylethyl)-5-[4-(trifluoromethyl)-phenyl][1,2,4]triazolo[1,5-a]pyrimidin-7(4H)-one] | 67.2
3 | CC(C)c1c(-c2cccc(C(F)(F)F)c2)[nH]c2ncnn2c1=O [Example 11-85, 6-(1-methylethyl)-5-[3-(trifluoromethyl)phenyl] [1,2,4]triazolo[1,5-a]pyrimidin-7(4H)-one] | 41.2
4 | CC(C)c1c(-c2cc(C(F)(F)F)nn2C)[nH]c2ncnn2c1=O [Example 11-87, 6-(1-methylethyl)-5-[1-methyl-3-(trifluoromethyl)-1H-pyrazol-5-yl][1,2,4]triazolo[1,5-a]pyrimidin-7(4H)-one] | 1220
5 | CC(C)c1c(-c2ccc3ncn(C4CC4)c3c2)[nH]c2ncnn2c1=O [Example 11-89, 5-(1-cyclopropyl-1H-benzimidazol-6-yl)-6-(1-methylethyl)[1,2,4]triazolo[1,5-a]pyrimidin-7(4H)-one] | 21.3
6 | CC(C)c1c(-c2ccnn2Cc2ccccc2)[nH]c2ncnn2c1=O [Example 11-91, 5-(1-benzyl-1H-pyrazol-5-yl)-6-(1-methylethyl)[1,2,4]triazolo[1,5-a]pyrimidin-7(4H)-one] | 634
7 | CC(C)c1c(-c2ccc(N3CCCC3)cc2)[nH]c2ncnn2c1=O [Example 11-94, 6-(1-methylethyl)-5-(4-pyrrolidin-1-ylphenyl)[1,2,4]triazolo[1,5-a]pyrimidin-7(4H)-one] | 20.1
8 | CC(C)c1c(-c2ccc(-n3nccn3)cc2)[nH]c2ncnn2c1=O [Example 11-97, 6-(1-methylethyl)-5-[4-(2H-1,2,3-triazol-2-yl)phenyl][1,2,4]triazolo[1,5-a]pyrimidin-7(4H)-one] | 32.4
9 | CC(C)c1c(-c2ccc(-n3cccn3)cc2F)[nH]c2ncnn2c1=O [Example 11-98, 5-[2-fluoro-4-(1H-pyrazol-1-yl)phenyl]-6-(1-methylethyl)[1,2,4]triazolo[1,5-a]pyrimidin-7(4H)-one] | 122
10 | CC(C)c1c(-c2ccc(N)cc2)[nH]c2ncnn2c1=O [Example 11-99, 5-(4-aminophenyl)-6-(1-methylethyl)[1,2,4]triazolo[1,5-a]pyrimidin-7(4H)-one] | 32.9
11 | CC(C)c1c(-c2ccc(N(C)C)cc2)[nH]c2ncnn2c1=O [Example 11-103, 5-[4-(dimethylamino)phenyl]-6-(1-methylethyl)[1,2,4]triazolo[1,5-a]pyrimidin-7(4H)-one] | 36.9
12 | CNc1ccc(-c2[nH]c3ncnn3c(=O)c2C(C)C)cc1 [Example 11-104, 5-[4-(methylamino)phenyl]-6-(1-methylethyl)[1,2,4]triazolo[1,5-a]pyrimidin-7(4H)-one] | 43.8
13 | CC(C)c1c(-c2ccc3c(c2)OCCN3C)[nH]c2ncnn2c1=O [Example 11-105, 5-(4-methyl-3,4-dihydro-2H-1,4-benzoxazin-7-yl)-6-(1-methylethyl)[1,2,4]triazolo[1,5-a]pyrimidin-7(4H)-one] | 34.2

The remaining lines, values ahead:

Row | IC50 [nM] | Structure (SMILES)
14 | 12.6 | CC(C)c1c(-c2ccc(C(=O)N(C)C)cc2)[nH]c2ncnn2c1=O [Example 11-86, N,N-dimethyl-4-[6-(1-methylethyl)-7-oxo-4,7-dihydro[1,2,4]triazolo[1,5-a]pyrimidin-5-yl]benzamide]
15 | 8.57 | CC(C)c1c(-c2ccc(-c3ccncc3)cc2)[nH]c2ncnn2c1=O [Example 11-88, 6-(1-methylethyl)-5-(4-pyridin-4-ylphenyl)[1,2,4]triazolo[1,5-a]pyrimidin-7(4H)-one]
16 | 7.26 | CC(C)c1c(-c2ccc(-c3nccn3C)cc2)[nH]c2ncnn2c1=O [Example 11-90, 6-(1-methylethyl)-5-[4-(1-methyl-1H-imidazol-2-yl)phenyl][1,2,4]triazolo[1,5-a]pyrimidin-7(4H)-one]
17 | 5.29 | COCC(C)(C)n1cc(-c2[nH]c3ncnn3c(=O)c2C(C)C)cn1 [Example 11-92, 5-[1-(2-methoxy-1,1-dimethylethyl)-1H-pyrazol-4-yl]-6-(1-methylethyl)[1,2,4]triazolo[1,5-a]pyrimidin-7(4H)-one]
18 | 15.5 | CC(C)c1c(-c2ccc(N3CCN(C(C)C)CC3)cc2)[nH]c2ncnn2c1=O [Example 11-93, 6-(1-methylethyl)-5-{4-[4-(1-methylethyl)piperazin-1-yl]phenyl}[1,2,4]triazolo[1,5-a]pyrimidin-7(4H)-one]
19 | 8.59 | CC(C)c1c(-c2ccc(-n3ccnn3)cc2)[nH]c2ncnn2c1=O [Example 11-95, 6-(1-methylethyl)-5-[4-(1H-1,2,3-triazol-1-yl)phenyl][1,2,4]triazolo[1,5-a]pyrimidin-7(4H)-one]
20 | 13.5 | CC(C)c1c(-c2ccc(N3CCS(=O)(=O)CC3)cc2)[nH]c2ncnn2c1=O [Example 11-96, 5-[4-(1,1-dioxidothiomorpholin-4-yl)phenyl]-6-(1-methylethyl)[1,2,4]triazolo[1,5-a]pyrimidin-7(4H)-one]
21 | 20.1 | CC(C)c1c(-c2ccc(NS(C)(=O)=O)cc2)[nH]c2ncnn2c1=O [Example 11-100, N-{4-[6-(1-methylethyl)-7-oxo-4,7-dihydro[1,2,4]triazolo[1,5-a]pyrimidin-5-yl]phenyl}methanesulfonamide]
22 | 7.57 | CC(C)c1c(-c2ccc3c(c2)CCC(=O)N3)[nH]c2ncnn2c1=O [Example 11-101, 6-[6-(1-methylethyl)-7-oxo-4,7-dihydro[1,2,4]triazolo[1,5-a]pyrimidin-5-yl]-3,4-dihydroquinolin-2(1H)-one]
23 | 17.8 | CC(C)c1c(-c2ccc3c(c2)OCC(=O)N3)[nH]c2ncnn2c1=O [Example 11-102, 7-[6-(1-methylethyl)-7-oxo-4,7-dihydro[1,2,4]triazolo[1,5-a]pyrimidin-5-yl]-2H-1,4-benzoxazin-3(4H)-one]
24 | 16.6 | CC(C)c1c(-c2ccc(N3CCN(C)CC3)cc2)[nH]c2ncnn2c1=O [Example 11-106, 6-(1-methylethyl)-5-[4-(4-methylpiperazin-1-yl)phenyl][1,2,4]triazolo[1,5-a]pyrimidin-7(4H)-one]
25 | 5.08 | CC(C)c1c(-c2cnn(C(C)(C)CO)c2)[nH]c2ncnn2c1=O [Example 11-107, 5-[1-(2-hydroxy-1,1-dimethylethyl)-1H-pyrazol-4-yl]-6-(1-methylethyl)[1,2,4]triazolo[1,5-a]pyrimidin-7(4H)-one]
26 | 5.08 | CC(C)c1c(-c2ccc(CN3CCOCC3)s2)[nH]c2ncnn2c1=O [Example 11-108, 6-(1-methylethyl)-5-[5-(morpholin-4-ylmethyl)thiophen-2-yl][1,2,4]triazolo[1,5-a]pyrimidin-7(4H)-one]
27 | 5.08 | CC(C)c1c(-c2cnn(C3CCC3)c2)[nH]c2ncnn2c1=O [Example 11-109, 5-(1-cyclobutyl-1H-pyrazol-4-yl)-6-(1-methylethyl)[1,2,4]triazolo[1,5-a]pyrimidin-7(4H)-one]
28 | 6.7 | CC(C)c1c(-c2cnn(Cc3cccs3)c2)[nH]c2ncnn2c1=O [Example 11-110, 6-(1-methylethyl)-5-[1-(thiophen-2-ylmethyl)-1H-pyrazol-4-yl][1,2,4]triazolo[1,5-a]pyrimidin-7(4H)-one]
